One assay addresses T1, μ opioid receptor (Homo sapiens, UniProt P35372).
T1 construct: expressed in transfected cells; host or cells: CHO K1 (clone CHOK1-μ-K32)
In kind it is cell-based.

The test system of assay [1] is CHOK1-empty (mock) strain. In kind it is cell-based.
For another assay, the system named is P2Y2 receptor. As to the kind of experiment: Cytoplasmic Ca2+ measurement with ATP alone in CHOK1-μ-K32 cells (endogenous P2Y2). In kind it is cell-based.
Another assay addresses T2, P2X7 (Homo sapiens, UniProt Q99572).
T2 sequence (Q99572 1-595): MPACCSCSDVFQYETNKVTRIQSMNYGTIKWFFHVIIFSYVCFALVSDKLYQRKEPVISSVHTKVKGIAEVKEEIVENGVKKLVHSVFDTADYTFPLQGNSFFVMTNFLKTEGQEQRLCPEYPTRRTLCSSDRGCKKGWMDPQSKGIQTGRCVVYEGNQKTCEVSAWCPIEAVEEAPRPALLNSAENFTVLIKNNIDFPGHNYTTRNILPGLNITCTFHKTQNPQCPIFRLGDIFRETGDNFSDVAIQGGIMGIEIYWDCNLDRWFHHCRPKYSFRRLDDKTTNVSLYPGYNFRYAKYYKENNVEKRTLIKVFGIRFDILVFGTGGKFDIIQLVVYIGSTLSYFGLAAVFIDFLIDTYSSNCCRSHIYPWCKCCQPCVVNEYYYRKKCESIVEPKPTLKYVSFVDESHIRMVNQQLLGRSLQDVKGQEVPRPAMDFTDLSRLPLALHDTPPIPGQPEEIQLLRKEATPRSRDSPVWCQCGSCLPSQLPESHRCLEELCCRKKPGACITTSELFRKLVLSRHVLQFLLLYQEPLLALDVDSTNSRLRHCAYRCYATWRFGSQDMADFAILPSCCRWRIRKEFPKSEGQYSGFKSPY
The note with it: P2X7 versus P2Y2; cited from earlier work.

A further assay deals with T3, 5HT-1B receptor (Cricetulus griseus, UniProt P46636).
T3 construct: the 5HT-1B receptor endogenously expressed by the CHO cells; endogenous in cells; host or cells: CHO K1 (CHOK1-ORL-K66)
As to the kind of experiment: Cytoplasmic Ca2+ measurement (FLIPR, fluo-4) of the endogenously expressed 5HT-1B receptor in CHO K1 cells. In kind it is cell-based. The note with it: serotonin concentration 10 μM, 100 nM ATP, CHOK1-ORL-K66, mean of four measurements. The protocol: The cytoplasmic Ca^2+ concentration was measured in all the Examples using the FLIPR Calcium Plus Assay Kit and a corresponding FLIPR device from Molecular Devices, according to the manufacturer's instructions.
In brief, on the day preceding the experiment, the cells to be measured were plated out in a suitable 96-well cell culture plate, in a density of 25,000 cells per well, in a volume of 100 μl of the appropriate medium. Cell culture plates from Becton-Dickinson (order no. 66440) coated with poly-D-lysine were used for the test. On the day of the test, the cells were loaded with fluo-4. To that end, a vial of fluo-4 was dissolved in 23 μl of DMSO and 23 μl of Pluronic F 127. 42 μl of the solution were added to 21 ml of HBSS (+Probenecid and Hepes). 50 μl of this solution per well were added to the cells, the plates being incubated, for loading, for 30 minutes at 37° C., 5% CO2, 98% relative humidity. In order to remove excess loading solution, the plates were washed three times with 200 μl of HBSS in a washing device for 96-well plates. This was followed by a dispension step, in which in each case 100 μl of HBSS were added to the cells. […]
Compared with the negative control, the addition of the 5HT-1B agonist serotonin produced a marked signal intensification in the fluorescence measurement (FIG. 6).

Molecules are shown by their SMILES. A value given as a limit tells only on which side of the number the result lay.

T1 sequence (P35372 whole entry, species assumed): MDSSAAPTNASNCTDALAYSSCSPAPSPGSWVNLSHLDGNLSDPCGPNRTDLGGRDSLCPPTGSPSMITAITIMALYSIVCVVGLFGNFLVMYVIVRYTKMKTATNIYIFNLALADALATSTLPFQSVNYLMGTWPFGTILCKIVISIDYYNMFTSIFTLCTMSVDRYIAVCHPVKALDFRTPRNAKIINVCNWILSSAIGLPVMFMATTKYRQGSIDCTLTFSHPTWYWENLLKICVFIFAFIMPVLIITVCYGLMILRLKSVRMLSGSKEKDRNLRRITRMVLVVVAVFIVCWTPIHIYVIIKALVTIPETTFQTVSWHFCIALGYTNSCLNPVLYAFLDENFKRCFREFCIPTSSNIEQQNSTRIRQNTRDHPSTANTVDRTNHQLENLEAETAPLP
T3 sequence (P46636 whole entry): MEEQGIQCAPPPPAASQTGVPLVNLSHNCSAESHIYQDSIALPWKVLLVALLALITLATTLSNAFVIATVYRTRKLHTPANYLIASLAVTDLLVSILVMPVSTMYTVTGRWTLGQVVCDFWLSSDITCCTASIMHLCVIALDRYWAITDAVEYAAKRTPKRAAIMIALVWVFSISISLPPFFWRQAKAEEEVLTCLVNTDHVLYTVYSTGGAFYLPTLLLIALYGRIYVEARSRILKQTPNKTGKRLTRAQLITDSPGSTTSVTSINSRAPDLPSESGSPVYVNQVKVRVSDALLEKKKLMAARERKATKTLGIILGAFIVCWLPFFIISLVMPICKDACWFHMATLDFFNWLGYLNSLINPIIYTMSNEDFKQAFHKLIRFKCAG

As for `C[C@@H](NC(=O)[C@@H](N)Cc1ccc(O)cc1)C(=O)NCC(=O)N(C)[C@@H](Cc1ccccc1)C(=O)NCCO` [DAMGO], on μ opioid receptor, the “fluorescence intensity in dependence on concentration” value was “conventional dose-response curve” and the fluorescence signal result is “about 300 relative units”. Also, in assay [1], the “effect of DAMGO on the ATP-triggered fluorescence signal” value is listed as “not affected” and the “fluorescence signal in non-transfected CHOK1 cells” value is given as “none of the μ-receptor agonists used gave a fluorescence signal above the background”.
Consider `Nc1ncnc2c1ncn2[C@@H]1O[C@H](COP(=O)(O)OP(=O)(O)OP(=O)(O)O)[C@@H](O)[C@H]1O` [ATP], for which the fluorescence signal result in the assay on P2Y2 receptor (300 nM ATP, absence of DAMGO, CHOK1-μ-K32) is listed as “more than 1000 relative units”. The “ATP concentration at which a change in the fluorescence is detectable” value in the assay on P2Y2 receptor (ATP on its own, CHO-μ-K32 cells) is at least 300 nM. Moreover, the “ATP binding to P2X7 relative to P2Y2 (times more weakly)” value on P2X7 is on record as “about 100 times”.
For the compound `NCCc1c[nH]c2ccc(O)cc12` [serotonin], the “fluorescence intensity on average” value on 5HT-1B receptor came to 1337 relative units.

These data come from US7829300B2 (priority 2002, dated 2010).
